Data published in patent US9296741B2, “Bromodomain inhibitors” (priority 2012, dated 2016).

How the values were obtained:
[1] = test system: breast cancer cell line MX-1; assay: MX-1 cell line proliferation assay; format: cell-based, human; conditions: Homo sapiens, MX1, 72 h; MX-1 cells, 3-day proliferation, Cell Titer Glo; read-out: Cellular proliferation: EC50
[2] = Human liver microsome stability assay; format: in vitro ADME; conditions: both sexes, human, microsomes, pH 7.4
[3] = biological target: human BRD4 second bromodomain (BDII_E352-M457) (Homo sapiens (Human), UniProt O60885); assay: TR-FRET bromodomain binding assay, BRD4 second bromodomain
[4] = Rat liver microsome stability assay; format: in vitro ADME; conditions: rat liver microsomes (male Sprague-Dawley), 0.5 μM test compound, pH 7.4, 37° C.; for half-life at 0.5 μM: 0.25 mg/mL microsomal protein, read-out: Stability in rat liver microsomes (t1/2 in minutes)
[5] = biological target: human BRD4 first bromodomain (BDI_K57-E168) (Homo sapiens (Human), UniProt O60885); assay: TR-FRET bromodomain binding assay, BRD4 first bromodomain

Row | EC50 [1] [µM] | half-life at 0.5 μM [2] [min] | Ki [3] [µM] | Stability in rat liver microsomes (t1/2 in minutes) ([4]; […] microsomal protein) [min] | Ki [5] [µM] | half-life at 0.5 μM [4] [min] | SMILES
1 | 0.137 | 9 | 0.041 | 1 | 0.136 |  | Cn1cc(-c2ccccc2Oc2ccccc2)c2cc[nH]c2c1=O [Example 1, 6-methyl-4-(2-phenoxyphenyl)-1,6-dihydro-7H-pyrrolo[2,3-c]pyridin-7-one]
2 | 0.0562 |  | 0.0036 |  | 0.003 |  | Cn1cc(-c2cc(NS(C)(=O)=O)ccc2Oc2ccccc2C#N)c2cc[nH]c2c1=O [Example 25, N-[4-(2-cyanophenoxy)-3-(6-methyl-7-oxo-6,7-dihydro-1H-pyrrolo[2,3-c]pyridin-4-yl)phenyl]methanesulfonamide]
3 | 0.0765 |  | 0.0054 |  | 0.0622 |  | CN1CCC(NC(=O)c2ccc(Oc3ccc(F)cc3F)c(-c3cn(C)c(=O)c4[nH]ccc34)c2)C1=O (stereo not shown) [Example 53, 4-(2,4-difluorophenoxy)-3-(6-methyl-7-oxo-6,7-dihydro-1H-pyrrolo[2,3-c]pyridin-4-yl)-N-(1-methyl-2-oxopyrrolidin-3-yl)benzamide]
4 | 0.0332 | > 120 | 0.0034 |  | 0.00074 | > 120 | CCS(=O)(=O)Nc1ccc(OC2CCOC2)c(-c2cn(C)c(=O)c3[nH]ccc23)c1 (stereo not shown) [Example 66, N-[3-(6-methyl-7-oxo-6,7-dihydro-1H-pyrrolo[2,3-c]pyridin-4-yl)-4-(tetrahydrofuran-3-yloxy)phenyl]ethanesulfonamide]
5 | 5.9 |  | 2.55 |  | 1.7 |  | COC(=O)c1cc2c(-c3ccccc3Oc3ccccc3)cn(C)c(=O)c2n1C [Example 68, methyl 1,6-dimethyl-7-oxo-4-(2-phenoxyphenyl)-6,7-dihydro-1H-pyrrolo[2,3-c]pyridine-2-carboxylate]
6 | 0.29 |  | 0.0297 |  | 0.0658 |  | CCOC(=O)c1cc2c(-c3cc(N(CC)S(C)(=O)=O)ccc3Oc3ccccc3)nn(C)c(=O)c2[nH]1 [Example 76, ethyl 4-{5-[ethyl(methylsulfonyl)amino]-2-phenoxyphenyl}-6-methyl-7-oxo-6,7-dihydro-1H-pyrrolo[2,3-d]pyridazine-2-carboxylate]
7 | 0.103 |  | 0.00099 |  | 0.0095 |  | CCNC(=O)c1cc2c(-c3cc(NS(C)(=O)=O)ccc3Oc3ccccc3)nn(C)c(=O)c2[nH]1 [Example 81, N-ethyl-6-methyl-4-{5-[(methylsulfonyl)amino]-2-phenoxyphenyl}-7-oxo-6,7-dihydro-1H-pyrrolo[2,3-d]pyridazine-2-carboxamide]
8 | > 3 | 23 | 0.236 |  | 0.635 | 12 | Cn1cc(-c2ccccc2Oc2ccccc2)c2cc(-c3ccccc3)[nH]c2c1=O [Example 88, 6-methyl-4-(2-phenoxyphenyl)-2-phenyl-1,6-dihydro-7H-pyrrolo[2,3-c]pyridin-7-one]
9 | 0.0252 |  | 0.0021 |  | 0.0016 |  | Cn1cc(-c2cc(NS(C)(=O)=O)ccc2Oc2ccccc2)c2cc(CO)[nH]c2c1=O [Example 89, N-{3-[2-(hydroxymethyl)-6-methyl-7-oxo-6,7-dihydro-1H-pyrrolo[2,3-c]pyridin-4-yl]-4-phenoxyphenyl}methanesulfonamide]
10 | 0.0168 |  | 0.0068 |  | 0.004 |  | CCS(=O)(=O)Nc1ccc(Oc2ccc(C#N)cc2)c(-c2cn(C)c(=O)c3[nH]ccc23)c1 [Example 90, N-[4-(4-cyanophenoxy)-3-(6-methyl-7-oxo-6,7-dihydro-1H-pyrrolo[2,3-c]pyridin-4-yl)phenyl]ethanesulfonamide]
11 | > 3 |  | 0.381 |  | 0.0474 |  | Cn1cc(-c2cc(NS(=O)(=O)CCF)ccc2Oc2ccc(C#N)cc2)c2cc[nH]c2c1=O [Example 113, N-[4-(4-cyanophenoxy)-3-(6-methyl-7-oxo-6,7-dihydro-1H-pyrrolo[2,3-c]pyridin-4-yl)phenyl]-2-fluoroethanesulfonamide]
12 | 0.37 |  | 0.107 |  | 0.0223 |  | CCS(=O)(=O)Nc1ccc(OCc2cc(C)nn2C)c(-c2cn(C)c(=O)c3[nH]ccc23)c1 [Example 143, N-{4-[(1,3-dimethyl-1H-pyrazol-5-yl)methoxy]-3-(6-methyl-7-oxo-6,7-dihydro-1H-pyrrolo[2,3-c]pyridin-4-yl)phenyl}ethanesulfonamide]
13 | 0.0066 |  | 0.0018 |  | 0.0018 |  | Cn1cc(-c2cc(S(C)(=O)=O)ccc2OC2CCCC2)c2cc[nH]c2c1=O [Example 216, 4-[2-(cyclopentyloxy)-5-(methylsulfonyl)phenyl]-6-methyl-1,6-dihydro-7H-pyrrolo[2,3-c]pyridin-7-one]
14 | 0.0177 |  | 0.0029 |  | 0.0036 |  | Cn1cc(-c2cc(S(C)(=O)=O)ccc2OCCC2CC2)c2cc[nH]c2c1=O [Example 219, 4-[2-(2-cyclopropylethoxy)-5-(methylsulfonyl)phenyl]-6-methyl-1,6-dihydro-7H-pyrrolo[2,3-c]pyridin-7-one]
15 | 0.0069 |  | 0.0015 |  | 0.0022 |  | CC1CCC(Oc2ccc(S(C)(=O)=O)cc2-c2cn(C)c(=O)c3[nH]ccc23)CC1 (stereo not shown) [Example 233, 6-methyl-4-{2-[(4-methylcyclohexyl)oxy]-5-(methylsulfonyl)phenyl}-1,6-dihydro-7H-pyrrolo[2,3-c]pyridin-7-one]
16 | 0.0159 |  | 0.0034 |  | 0.003 |  | Cn1cc(-c2cc(S(C)(=O)=O)ccc2OCC2CCC2)c2cc[nH]c2c1=O [Example 234, 4-[2-(cyclobutylmethoxy)-5-(methylsulfonyl)phenyl]-6-methyl-1,6-dihydro-7H-pyrrolo[2,3-c]pyridin-7-one]
17 | 0.0101 |  | 0.0024 |  | 0.0028 |  | CNS(=O)(=O)c1ccc(NCC2CC2)c(-c2cn(C)c(=O)c3[nH]ccc23)c1 [Example 239, 4-[(cyclopropylmethyl)amino]-N-methyl-3-(6-methyl-7-oxo-6,7-dihydro-1H-pyrrolo[2,3-c]pyridin-4-yl)benzenesulfonamide]
18 | 0.123 | 117 | 0.0203 |  | 0.0242 | 87 | CCOc1ccc(S(C)(=O)=O)cc1-c1cn(C)c(=O)c2[nH]ccc12 [Example 259, 4-[2-ethoxy-5-(methylsulfonyl)phenyl]-6-methyl-1,6-dihydro-7H-pyrrolo[2,3-c]pyridin-7-one]
19 | 0.0769 | 70 | 0.0163 |  | 0.0088 | 72 | Cc1cc(OCC2CC2)c(-c2cn(C)c(=O)c3[nH]ccc23)cc1NS(C)(=O)=O [Example 263, N-[4-(cyclopropylmethoxy)-2-methyl-5-(6-methyl-7-oxo-6,7-dihydro-1H-pyrrolo[2,3-c]pyridin-4-yl)phenyl]methanesulfonamide]
20 | 0.0178 | 14 | 0.0012 |  | 0.0012 | 6 | CCS(=O)(=O)c1ccc(OC2CCSCC2)c(-c2cn(C)c(=O)c3[nH]ccc23)c1 [Example 264, 4-[5-(ethylsulfonyl)-2-(tetrahydro-2H-thiopyran-4-yloxy)phenyl]-6-methyl-1,6-dihydro-7H-pyrrolo[2,3-c]pyridin-7-one]
21 | > 3 | > 120 | 0.0356 |  | 0.009 | > 120 | CCS(=O)(=O)c1ccc(OC2CCS(=O)(=O)CC2)c(-c2cn(C)c(=O)c3[nH]ccc23)c1 [Example 265, 4-{2-[(1,1-dioxidotetrahydro-2H-thiopyran-4-yl)oxy]-5-(ethylsulfonyl)phenyl}-6-methyl-1,6-dihydro-7H-pyrrolo[2,3-c]pyridin-7-one]
22 | 0.0564 | 8 | 0.0078 |  | 0.0215 | 20 | CN(C)S(=O)(=O)c1cnc(Oc2ccc(F)cc2F)c(-c2cn(C)c(=O)c3[nH]ccc23)c1 [Example 266, 6-(2,4-difluorophenoxy)-N,N-dimethyl-5-(6-methyl-7-oxo-6,7-dihydro-1H-pyrrolo[2,3-c]pyridin-4-yl)pyridine-3-sulfonamide]
23 | > 3 |  | 0.31 |  | 0.0124 |  | Cn1cc(-c2cc(S(C)(=O)=O)ccc2Oc2ccc(F)cc2F)c2cc(COc3cccnc3)[nH]c2c1=O [Example 289, 4-[2-(2,4-difluorophenoxy)-5-(methylsulfonyl)phenyl]-6-methyl-2-[(pyridin-3-yloxy)methyl]-1,6-dihydro-7H-pyrrolo[2,3-c]pyridin-7-one]
24 | 0.622 |  | 0.0817 |  | 0.295 |  | CCS(=O)(=O)N(CCOC)c1ccc(Oc2ccc(F)cc2F)c(-c2cn(C)c(=O)c3[nH]ccc23)c1 [Example 341, N-[4-(2,4-difluorophenoxy)-3-(6-methyl-7-oxo-6,7-dihydro-1H-pyrrolo[2,3-c]pyridin-4-yl)phenyl]-N-(2-methoxyethyl)ethanesulfonamide]
25 | 0.636 |  | 0.136 |  | 0.43 |  | CCS(=O)(=O)N(CCN1CCCC1=O)c1ccc(Oc2ccc(F)cc2F)c(-c2cn(C)c(=O)c3[nH]ccc23)c1 [Example 344, N-[4-(2,4-difluorophenoxy)-3-(6-methyl-7-oxo-6,7-dihydro-1H-pyrrolo[2,3-c]pyridin-4-yl)phenyl]-N-[2-(2-oxopyrrolidin-1-yl)ethyl]ethanesulfonamide]
